In patent US20140039204A1, “7'-PHLOROECKOL COMPOUND FOR HAIR PROLIFERATION AND A COSMETIC COMPOSITION CONTAINING SAME” (PUKYONG NATIONAL UNIVERSITY INDUSTRY-UNIVERSITY COOPERATION …, priority 2011, published 2014):

Key:
[1] = tested on: AKT pathway (PI3K, pAKT) in HaCaT; experiment: Western blot, AKT pathway in HaCaT; assay type: cell-based, human; conditions: 0.5 μM, 1 hour
Protocol: (§1) Western blot assay was performed as standard procedure to study the action mechanism on HFDPC and HaCaT proliferation mediated by 7′-phloroeckol. That is, cells were seeded with serum free medium in 6-well, then cultured for 24 hours (1.0×10^6 cells/well). Then, the cells were replaced with new medium and treated with the samples in the different concentrations for 1 hour to 24 hours. The cells were lysed in RIPA lysis buffer at 4° C. for 10 minutes. 10 μg cell lysate were divided by 10% SDS-polyacrylamide gel electrophoresis, transferred to polyvinylidenefluoride membrane filter and the membranes were blocked with 5% skim milk, hybridized with primary antibodies (1:10,000 dilution). Following the incubation with secondary horseradish peroxidase-conjugated antibodies at room temperature, immunoreactive protein was detected by using chemiluminescence ECL assay kit according to the manufacturer's instructions. Western blot band was visualized by using LAS3000® Luminescent image analyzer (Fujifilm Life Science, Tokyo, Japan).
(§2) Cells were treated with 7′-phloroeckol for 1 hour to 24 hours to examine the expression of protein by using western blot assay. […]
(§3) Data were expressed as a ratio of control group that doesn't contain the treated samples, the values are means±SEM, different letters written on the graph indicate a significant defference in Duncan's multiple range test (p<0.05). […]

[2] = tested on: Human Hair Follicle Dermal Papilla Cells (HFDPC); experiment: MTT assay, cell proliferation of HFDPC; assay type: cell-based
Protocol: (§4) Human Hair Follicle Dermal Papilla Cells (HFDPC) were purchased from Promo Cell (Heidelberg, Germany). Cells were cultured in ready-to-use HFDPC medium, which is composed of Basal Medium, Fetal Calf Serum (FCS), Supplement Kit (Promo Cell, Heidelberg, Germany) including basic FGF and insulin. Kit including HEPES Buffer Saline Solution (HBSS), trypsin/EDTA solution and Trypsin Neutralizing Solution (Promo Cell, Heidelberg, Germany) was used for subculture. Subcultured 4th to 6th TFDPC was used for experiments. HaCaT (human epidermal keratinocyte) was cultured in Dulbecco's modified Eagle's medium (DMEM, Gibco BRL,
(§5) 3-[4,5-dimethylthiazol-2yl]-2,5 diphenyl tetrazolium bromide (MTT) Assay
(§6) Cell proliferation of HFDPC and HaCaT were measured by using MTT method. After cells were seeded in 96-well with serum-free medium, the cells were incubated for 1 day (1.0×10^4 cells/well). Then, we replaced with new medium and cells were treated with 0.01 μM, 0.05 μM, 0.1 μμM, 0.5 μM and 1 μM samples, then incubated for 5 days. MTT solution (5 mg/ml) was added, the cells were cultivated in 37° C. incubator for 3 hours. Then, the medium were removed and the formazan crystal were dissolved with Dimethyl sulfoxide (DMSO), then the absorbance of the solution were measured.
As described in the FIG. 1 and FIG. 2, data were expressed as the percentage on the control that doesn't contain the treated samples. […] Different letters as stated on the graph indicate a significant difference in Duncan's multiple range test (p<0.05).

[3] = tested on: ERK pathway (MEK ½, p-ERK, c-Fos) in HaCaT; experiment: Western blot, ERK pathway in HaCaT; assay type: cell-based, human; conditions: 1 hour
Protocol: as §1
(§7) Cells were treated with 7′-phloroeckol for 1 hour to 24 hours to examine the expression of protein by using western blot assay. Graph showing the result of western blot in HFDPC were illustrated in the FIGS. 3 to 6(a) and graphs showing the result of western blot in HaCaT were illustrated in the FIGS. 3 to 6(b). While HFDPC and HaCaT were treated with 7′-phloroeckol for 1 hour in the experiment on the pathway of ERK and AKT relating cell proliferation, HFDPC and HaCaT were treated with 7′-phloroeckol for 24 hours in the experiment on Bcl-2, Bax, p53, caspase-9 and caspase-3 relating apoptosis, then the protein expression were observed.
(§8) Data were expressed as a ratio of control group that doesn't contain the treated samples, the values are means±SEM, different letters written on the graph indicate a significant defference in Duncan's multiple range test (p<0.05).
(§9) HFDPC and HaCaT were treated with 7′-phloroeckol and cultured for 1 hour to study activation of 7′-phloroeckol on ERK pathway related to cell proliferation (FIG. 3).

[4] = tested on: ERK pathway (MEK ½, p-ERK, total ERK, c-Fos) in HFDPC; experiment: Western blot, ERK pathway in HFDPC; assay type: cell-based, human; conditions: 1 hour
Protocol: as §1, §7, §8, §9

[5] = tested on: HaCaT (human epidermal keratinocyte); experiment: MTT assay, cell proliferation of HaCaT; assay type: cell-based; conditions: 5 days
Protocol: as §4, §5, §6
As described in the FIG. 1 and FIG. 2, data were expressed as the percentage on the control that doesn't contain the treated samples. […]

[6] = tested on: caspase-3 and caspase-9 in HFDPC; experiment: Western blot, caspase-3 and caspase-9 in HFDPC; assay type: cell-based, human; conditions: 0.5 μM, 24 hours
Protocol: as §1, §2, §3

[7] = tested on: caspase-3 and caspase-9 in HaCaT; experiment: Western blot, caspase-3 and caspase-9 in HaCaT; assay type: cell-based, human; conditions: 24 hours
Protocol: as §1, §7, §3

[8] = tested on: AKT pathway (PI3K, p-AKT, whole AKT) in HFDPC; experiment: Western blot, AKT pathway in HFDPC; assay type: cell-based, human; conditions: 1 hour
Protocol: as §1, §7, §8
After HFDPC and HaCaT were treated with 7′-phloroeckol and cultured for 1 hour to study the activation of 7′-phloroeckol on AKT pathway related cell proliferation (FIG. 4). […] But, there was no difference in whole AKT levels between treated with samples and without samples. Also, 0.5 μM 7′-phloroekol induced 1.75-fold and 1.65-fold levels of PI3K and pAKT in HaCaT.

[9] = tested on: Bcl-2, Bax, p53 in HFDPC; experiment: Western blot, apoptosis-related factors in HFDPC; assay type: cell-based, human; conditions: 24 hours
Protocol: as §1, §7, §8
(§10) To study the apoptotic effect by 7′-phloroeckol, HFDPC and HaCaT were treated with 7′-phloroeckol, then cultured for 24 hours (FIG. 5).

[10] = tested on: Bcl-2, Bax, p53 in HaCaT; experiment: Western blot, apoptosis-related factors in HaCaT; assay type: cell-based, human; conditions: 24 hours
Protocol: as §1, §7, §8, §10

## Oc1cc(O)cc(Oc2c(O)cc(O)c3c2Oc2c(O)cc(Oc4c(O)cc(O)cc4O)cc2O3)c1 [7′-phloroeckol, 1-(3′,5′-dihydroxyphenoxy)-7-(2″,4″,6-trihydroxyphenoxy)-2,4,9-trihydroxydibenzo-1,4-dioxin]
[1]
  level of PI3K: 1.75 fold
  level of pAKT: 1.65 fold
[2]; 0.01-1 μM, 5 days, percentage of control
  cell proliferation in HFDPC: increased the cell proliferation in dose-dependent manner
[2]; HFDPC, 1 μM, 5 days
  cell viability compared with 1 μM Minoxidil: significantly higher cell viability than 1 μM Minoxidil
[2]; HFDPC, 0.5 to 1 μM
  cell proliferation, 0.5 versus 1 μM: weren't significantly different
[3]
  expression of MEK ½ protein: increased in dose-dependent manner
  expression of c-Fos protein: increased in dose-dependent manner
  expression of p-ERK protein: increased in dose-dependent manner
[4]; 0.05 μM
  expression of MEK ½ protein versus control group: 1.17 fold
  level of phospho-ERK (p-ERK) versus control group: 1.39 fold
[4]; 0.5 μM
  expression of MEK ½ protein versus control group: 1.65 fold
  level of phospho-ERK (p-ERK) versus control group: 1.71 fold
[4]; 0.05 and 0.5 μM
  expression of c-Fos protein: increased the expression of c-Fos protein
  total ERK levels, treated versus untreated: no significant difference
[5]; 0.01-1 μM, percentage of control
  cell proliferation in HaCaT: increased the cell proliferation in dose-dependent manner
[5]; HaCaT, 0.1 μM
  cell viability compared with 0.1 μM Minoxidil: higher cell viability than 0.1 μM Minoxidil
[6]
  expression of caspase-3 protein versus control group: 0.14 fold
  expression of caspase-9 protein versus control group: 0.13 fold
[7]; 0.05 μM
  expression of caspase-3 protein versus control group: 0.88 fold
[7]; 0.5 μM
  expression of caspase-3 protein versus control group: 0.68 fold
[7]
  expression of caspase-9: suppressing the expression
[8]; 0.05 μM
  PI3K levels versus control group: 1.76 fold
  expression of phospho AKT (p-AKT) protein versus control group: 1.53 fold
[8]; 0.5 μM
  PI3K levels versus control group: 3.07 fold
  expression of phospho AKT (p-AKT) protein versus control group: 2.40 fold
[8]
  whole AKT levels, treated versus untreated: no difference
[9]
  expression level of Bcl-2: decreased
  expression level of p53: decreased
  expression of proapoptotic molecule Bax: decreased the expression of proapoptotic molecule Bax
[9]; dose-dependent
  expression level of Bcl-2 protein: significantly increased
[10]; 0.05 μM
  expression of Bcl-2 protein versus control group: 2.60 fold
[10]; 0.5 μM
  expression of Bcl-2 protein versus control group: 4.21 fold
  level of Bax versus control: 0.67 fold
  level of p53 versus control: 0.72 fold
